Legend:
Assay in all cases: Test E preemergence herbicide test
Set-up in all cases: key: 0 = no effect, 100 = complete control
corn = type: in vivo, Zea mays
Excerpt: (§1) Seeds of plant species selected from corn (Zea mays), soybean (Glycine max), velvetleaf (Abutilon theophrasti), lambsquarters (Chenopodium album), wild poinsettia (Euphorbia heterophylla), pigweed, palmer (palmer pigweed, Amaranthus palmeri), waterhemp (common waterhemp, Amaranthus rudis), surinam grass (Brachiaria decumbens), crabgrass, large (large crabgrass, Digitaria sanguinalis), crabgrass, Brazil (Brazilian crabgrass, Digitaria horizontalis), panicum, fall (fall panicum, Panicum dichotomiflorum), foxtail, giant (giant foxtail, Setaria faberii), foxtail, green (green foxtail, Setaria viridis), goosegrass (Eleusine indica), johnsongrass (Sorghum halepense), ragweed (common ragweed, Ambrosia elatior), barnyardgrass (Echinochloa crus-galli), sandbur (southern sandbur, Cenchrus echinatus), arrowleaf […] rhombifolia), ryegrass, Italian (Italian ryegrass, Lolium multiflorum), dayflower, VA (Virginia dayflower, Commelina virginica), field bindweed (Convolvulus arvensis), morningglory (Ipomoea coccinea), nightshade (eastern black nightshade, Solanum ptycanthum), kochia (Kochia scoparia), nutsedge, yellow (yellow nutsedge, Cyperus esculentus), cocklebur (common cocklebur, Xanthium strumarium), smartweed (ladysthumb smartweed, Polygonum Persicaria) and beggarticks (hairy beggarticks, Bidens pilosa), were planted into a silt loam soil and treated preemergence with test chemicals formulated in a non-phytotoxic solvent mixture which included a surfactant. Treated plants and controls were maintained in a greenhouse for 21 days, after which time all species were compared to controls and visually evaluated. Plant response ratings, summarized in Table E, are based on a scale of 0 to 100 where 0 is no effect and 100 is complete control. A dash (-) response means no test result.

johnsongrass = type: in vivo, Sorghum halepense
Excerpt: as §1

lambsquarters = type: in vivo, Chenopodium album
Excerpt: as §1

surinam grass = type: in vivo, Brachiaria decumbens
Excerpt: as §1

barnyardgrass = type: in vivo, Echinochloa crus-galli
Excerpt: as §1

panicum, fall = type: in vivo, Panicum dichotomiflorum
Excerpt: as §1

beggarticks = type: in vivo, Bidens pilosa
Excerpt: as §1

velvetleaf = type: in vivo, Abutilon theophrasti
Excerpt: as §1

O=C1NCC(c2ccc(F)cc2)C1C(=O)Nc1ccccc1F (racemic) [Compound 16]
Plant response rating, Corn (corn; 16 g ai/ha): 0
Plant response rating, Corn (corn; 31 g ai/ha): 0
Plant response rating, Corn (corn; 62 g ai/ha): 0
Plant response rating, Corn (corn; 125 g ai/ha): 0
Plant response rating, Corn (corn; 250 g ai/ha): 0
Plant response rating, Johnsongrass (johnsongrass; 16 g ai/ha): 0
Plant response rating, Johnsongrass (johnsongrass; 31 g ai/ha): 0
Plant response rating, Johnsongrass (johnsongrass; 62 g ai/ha): 0
Plant response rating, Johnsongrass (johnsongrass; 125 g ai/ha): 0
Plant response rating, Johnsongrass (johnsongrass; 250 g ai/ha): 0
Plant response rating, Lambsquarters (lambsquarters; 16 g ai/ha): 0
Plant response rating, Lambsquarters (lambsquarters; 31 g ai/ha): 0
Plant response rating, Lambsquarters (lambsquarters; 62 g ai/ha): 0
Plant response rating, Lambsquarters (lambsquarters; 250 g ai/ha): 0
Plant response rating, Surinam Grass (surinam grass; 16 g ai/ha): 0
Plant response rating, Surinam Grass (surinam grass; 31 g ai/ha): 0
Plant response rating, Surinam Grass (surinam grass; 62 g ai/ha): 20
Plant response rating, Surinam Grass (surinam grass; 125 g ai/ha): 35
Plant response rating, Surinam Grass (surinam grass; 250 g ai/ha): 60
Plant response rating, Barnyardgrass (barnyardgrass; 16 g ai/ha): 0
Plant response rating, Barnyardgrass (barnyardgrass; 31 g ai/ha): 0
Plant response rating, Barnyardgrass (barnyardgrass; 62 g ai/ha): 0
Plant response rating, Barnyardgrass (barnyardgrass; 125 g ai/ha): 10
Plant response rating, Barnyardgrass (barnyardgrass; 250 g ai/ha): 70
Plant response rating, Panicum, Fall (panicum, fall; 16 g ai/ha): 0
Plant response rating, Panicum, Fall (panicum, fall; 31 g ai/ha): 0
Plant response rating, Panicum, Fall (panicum, fall; 62 g ai/ha): 0
Plant response rating, Panicum, Fall (panicum, fall; 125 g ai/ha): 0
Plant response rating, Beggarticks (beggarticks; 16 g ai/ha): 0
Plant response rating, Beggarticks (beggarticks; 125 g ai/ha): 0
Plant response rating, Beggarticks (beggarticks; 250 g ai/ha): 0
Plant response rating, Velvetleaf (velvetleaf; 16 g ai/ha): 0
Plant response rating, Velvetleaf (velvetleaf; 31 g ai/ha): 0
Plant response rating, Velvetleaf (velvetleaf; 62 g ai/ha): 0
Plant response rating, Velvetleaf (velvetleaf; 125 g ai/ha): 0
Plant response rating, Velvetleaf (velvetleaf; 250 g ai/ha): 0

O=C1NCC(c2cccc(Br)c2)C1C(=O)Nc1ccccc1F (stereo not drawn) [Compound 66]
Plant response rating, Corn (corn; 16 g ai/ha): 0
Plant response rating, Corn (corn; 31 g ai/ha): 0
Plant response rating, Corn (corn; 62 g ai/ha): 0
Plant response rating, Corn (corn; 125 g ai/ha): 0
Plant response rating, Corn (corn; 250 g ai/ha): 0
Plant response rating, Johnsongrass (johnsongrass; 16 g ai/ha): 0
Plant response rating, Johnsongrass (johnsongrass; 31 g ai/ha): 0
Plant response rating, Johnsongrass (johnsongrass; 62 g ai/ha): 0
Plant response rating, Johnsongrass (johnsongrass; 125 g ai/ha): 0
Plant response rating, Johnsongrass (johnsongrass; 250 g ai/ha): 0
Plant response rating, Lambsquarters (lambsquarters; 16 g ai/ha): 0
Plant response rating, Lambsquarters (lambsquarters; 31 g ai/ha): 0
Plant response rating, Lambsquarters (lambsquarters; 62 g ai/ha): 0
Plant response rating, Lambsquarters (lambsquarters; 125 g ai/ha): 0
Plant response rating, Lambsquarters (lambsquarters; 250 g ai/ha): 0
Plant response rating, Surinam Grass (surinam grass; 16 g ai/ha): 0
Plant response rating, Surinam Grass (surinam grass; 31 g ai/ha): 0
Plant response rating, Surinam Grass (surinam grass; 62 g ai/ha): 0
Plant response rating, Surinam Grass (surinam grass; 125 g ai/ha): 0
Plant response rating, Surinam Grass (surinam grass; 250 g ai/ha): 35
Plant response rating, Barnyardgrass (barnyardgrass; 16 g ai/ha): 0
Plant response rating, Barnyardgrass (barnyardgrass; 31 g ai/ha): 0
Plant response rating, Barnyardgrass (barnyardgrass; 62 g ai/ha): 20
Plant response rating, Barnyardgrass (barnyardgrass; 125 g ai/ha): 50
Plant response rating, Barnyardgrass (barnyardgrass; 250 g ai/ha): 50
Plant response rating, Panicum, Fall (panicum, fall; 16 g ai/ha): 0
Plant response rating, Panicum, Fall (panicum, fall; 31 g ai/ha): 0
Plant response rating, Panicum, Fall (panicum, fall; 62 g ai/ha): 0
Plant response rating, Panicum, Fall (panicum, fall; 125 g ai/ha): 0
Plant response rating, Panicum, Fall (panicum, fall; 250 g ai/ha): 0
Plant response rating, Beggarticks (beggarticks; 16 g ai/ha): 0
Plant response rating, Beggarticks (beggarticks; 31 g ai/ha): 0
Plant response rating, Beggarticks (beggarticks; 62 g ai/ha): 0
Plant response rating, Beggarticks (beggarticks; 125 g ai/ha): 0
Plant response rating, Beggarticks (beggarticks; 250 g ai/ha): 0
Plant response rating, Velvetleaf (velvetleaf; 16 g ai/ha): 0
Plant response rating, Velvetleaf (velvetleaf; 31 g ai/ha): 0
Plant response rating, Velvetleaf (velvetleaf; 62 g ai/ha): 0
Plant response rating, Velvetleaf (velvetleaf; 125 g ai/ha): 0
Plant response rating, Velvetleaf (velvetleaf; 250 g ai/ha): 0

O=C1NCC(c2ccc(C(F)(F)F)cc2)C1C(=O)Nc1ccc(F)c(F)c1F (stereo not drawn) [Compound 232]
Plant response rating, Corn (corn; 31 g ai/ha): 0
Plant response rating, Corn (corn; 62 g ai/ha): 0
Plant response rating, Corn (corn; 125 g ai/ha): 0
Plant response rating, Corn (corn; 250 g ai/ha): 0
Plant response rating, Johnsongrass (johnsongrass; 31 g ai/ha): 0
Plant response rating, Johnsongrass (johnsongrass; 62 g ai/ha): 0
Plant response rating, Johnsongrass (johnsongrass; 125 g ai/ha): 0
Plant response rating, Johnsongrass (johnsongrass; 250 g ai/ha): 25
Plant response rating, Lambsquarters (lambsquarters; 31 g ai/ha): 95
Plant response rating, Lambsquarters (lambsquarters; 62 g ai/ha): 98
Plant response rating, Lambsquarters (lambsquarters; 125 g ai/ha): 100
Plant response rating, Lambsquarters (lambsquarters; 250 g ai/ha): 98
Plant response rating, Surinam Grass (surinam grass; 31 g ai/ha): 40
Plant response rating, Surinam Grass (surinam grass; 62 g ai/ha): 50
Plant response rating, Surinam Grass (surinam grass; 125 g ai/ha): 70
Plant response rating, Surinam Grass (surinam grass; 250 g ai/ha): 98
Plant response rating, Barnyardgrass (barnyardgrass; 31 g ai/ha): 60
Plant response rating, Barnyardgrass (barnyardgrass; 62 g ai/ha): 70
Plant response rating, Barnyardgrass (barnyardgrass; 125 g ai/ha): 98
Plant response rating, Barnyardgrass (barnyardgrass; 250 g ai/ha): 95
Plant response rating, Panicum, Fall (panicum, fall; 31 g ai/ha): 35
Plant response rating, Panicum, Fall (panicum, fall; 62 g ai/ha): 50
Plant response rating, Panicum, Fall (panicum, fall; 125 g ai/ha): 50
Plant response rating, Panicum, Fall (panicum, fall; 250 g ai/ha): 60
Plant response rating, Beggarticks (beggarticks; 31 g ai/ha): 0
Plant response rating, Beggarticks (beggarticks; 62 g ai/ha): 0
Plant response rating, Beggarticks (beggarticks; 125 g ai/ha): 20
Plant response rating, Beggarticks (beggarticks; 250 g ai/ha): 60
Plant response rating, Velvetleaf (velvetleaf; 31 g ai/ha): 0
Plant response rating, Velvetleaf (velvetleaf; 62 g ai/ha): 0
Plant response rating, Velvetleaf (velvetleaf; 125 g ai/ha): 20
Plant response rating, Velvetleaf (velvetleaf; 250 g ai/ha): 80
